Test results reported in patent publication US20240246956A1, “CLASS IIA HISTONE DEACETYLASE (HDAC) DEGRADER LIGANDS AND METHODS OF USE THEREOF” (DANA-FARBER CANCER INSTITUTE, INC., priority 2021, published 2024).

Assays:
HDAC6 = HDAC6 (Homo sapiens, UniProt Q9UBN7); settings: FIG. 2A
Experimental: (§1) The in vitro HDAC enzymatic assays were performed by Reaction Biology (Devault, PA).

HDAC8 = HDAC8 (Homo sapiens, UniProt Q9BY41); settings: FIG. 2A
Experimental: as §1

class IIa HDACs = experiment: Global quantitative proteomics, change in protein abundance in Kelly cells; type: cell-based, human; settings: 1 μM, 5 hours, vs DMSO, moderated t-test, FIG. 4B-4C
Experimental: Cells were washed once with phosphate-buffered saline (PBS), harvested with CellstripperTM (Corning®), washed two additional times with PBS and snap frozen in liquid nitrogen. […] Proteins were precipitated using methanol/chloroform in Donovan et al., Elife 7:e38430 (2018). The precipitated protein was resuspended in 4 M Urea, 50 mM HEPES pH 7.4, followed by dilution to 1 M urea with the addition of 200 mM EPPS, pH 8. Proteins were first digested with LysC (1:50: enzyme:protein) for 12 hours at room temperature. The LysC digestion was diluted to 0.5 M Urea with 200 mM EPPS pH 8 followed by digestion with trypsin (1:50: enzyme:protein) for 6 hours at 37° C. Tandem mass tag (TMT) reagents (Thermo Fisher Scientific) were dissolved in anhydrous acetonitrile (ACN) according to manufacturer's instructions. Anhydrous ACN was added to each peptide sample to a final concentration of 30% v/v, and labeling was induced with the addition of TMT reagent to each sample at a ratio of 1:4 peptide:TMT label. The 11-plex labeling reactions were performed for 1.5 hours at room temperature and the reaction quenched by the addition of hydroxylamine to a final concentration of 0.3% for 15 minutes at room temperature. The sample channels were combined at a 1:1 ratio, desalted using C18 solid phase extraction cartridges (Waters®) and analyzed by LC-MS for channel ratio comparison. Samples were then combined using the adjusted volumes determined in the channel ratio analysis and dried down in a speed vacuum. The combined sample was then resuspended in 1% formic acid, and acidified (pH 2-3) before being subjected to desalting with C18 SPE (Sep-Pak®-, Waters®). […] Proteome Discoverer 2.2 (Thermo Fisher Scientific) was used for .RAW file processing and controlling peptide and protein level false discovery rates, assembling proteins from peptides, and protein quantification from peptides. […] TMT reporter ion intensities were measured using a 0.003 Da window around the theoretical m/z for each reporter ion in the MS3 scan. […]

HDAC5 = HDAC5 (Homo sapiens, UniProt Q9UQL6); experiment: as above; type: cell-based; parameters: endogenous in cells; host or cells: Kelly cells; settings: 1 μM, 5-hour treatment, vs DMSO, FIG. 3
Chain of HDAC5 (Q9UQL6 whole entry): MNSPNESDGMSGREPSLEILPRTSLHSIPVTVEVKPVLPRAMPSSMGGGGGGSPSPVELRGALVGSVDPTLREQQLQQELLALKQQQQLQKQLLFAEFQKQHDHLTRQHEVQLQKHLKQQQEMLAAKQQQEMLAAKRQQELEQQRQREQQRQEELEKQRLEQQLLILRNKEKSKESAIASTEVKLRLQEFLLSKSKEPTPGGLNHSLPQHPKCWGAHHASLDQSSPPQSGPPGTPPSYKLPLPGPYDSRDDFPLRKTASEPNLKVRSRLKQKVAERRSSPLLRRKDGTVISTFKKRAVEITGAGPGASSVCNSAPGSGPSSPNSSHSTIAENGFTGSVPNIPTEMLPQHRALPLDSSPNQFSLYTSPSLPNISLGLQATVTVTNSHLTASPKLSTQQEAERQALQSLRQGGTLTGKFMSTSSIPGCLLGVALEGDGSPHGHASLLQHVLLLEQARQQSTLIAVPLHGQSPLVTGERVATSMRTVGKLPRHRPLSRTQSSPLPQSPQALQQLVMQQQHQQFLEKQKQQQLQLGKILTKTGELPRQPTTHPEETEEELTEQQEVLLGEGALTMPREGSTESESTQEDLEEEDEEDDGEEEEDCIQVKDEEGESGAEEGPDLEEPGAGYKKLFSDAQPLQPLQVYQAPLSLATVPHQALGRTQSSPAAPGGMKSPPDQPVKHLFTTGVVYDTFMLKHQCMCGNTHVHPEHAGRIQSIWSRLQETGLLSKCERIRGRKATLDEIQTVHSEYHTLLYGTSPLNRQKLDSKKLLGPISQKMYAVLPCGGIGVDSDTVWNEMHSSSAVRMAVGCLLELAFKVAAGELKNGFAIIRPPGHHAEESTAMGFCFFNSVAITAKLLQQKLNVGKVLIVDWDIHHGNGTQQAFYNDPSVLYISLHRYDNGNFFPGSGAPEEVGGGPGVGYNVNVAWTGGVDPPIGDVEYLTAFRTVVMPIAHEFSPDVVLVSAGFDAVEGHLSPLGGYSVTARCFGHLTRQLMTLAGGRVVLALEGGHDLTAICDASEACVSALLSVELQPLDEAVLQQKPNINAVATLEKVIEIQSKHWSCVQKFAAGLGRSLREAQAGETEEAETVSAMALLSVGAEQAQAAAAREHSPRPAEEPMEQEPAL
Experimental: (§2) Cells were washed once with phosphate-buffered saline (PBS), harvested with CellstripperTM (Corning®), washed two additional times with PBS and snap frozen in liquid nitrogen. […] Proteins were precipitated using methanol/chloroform in Donovan et al., Elife 7:e38430 (2018). The precipitated protein was resuspended in 4 M Urea, 50 mM HEPES pH 7.4, followed by dilution to 1 M urea with the addition of 200 mM EPPS, pH 8. Proteins were first digested with LysC (1:50: enzyme:protein) for 12 hours at room temperature. The LysC digestion was diluted to 0.5 M Urea with 200 mM EPPS pH 8 followed by digestion with trypsin (1:50: enzyme:protein) for 6 hours at 37° C. Tandem mass tag (TMT) reagents (Thermo Fisher Scientific) were dissolved in anhydrous acetonitrile (ACN) according to manufacturer's instructions. Anhydrous ACN was added to each peptide sample to a final concentration of 30% v/v, and labeling was induced with the addition of TMT reagent to each sample at a ratio of 1:4 peptide:TMT label. The 11-plex labeling reactions were performed for 1.5 hours at room temperature and the reaction quenched by the addition of hydroxylamine to a final concentration of 0.3% for 15 minutes at room temperature. The sample channels were combined at a 1:1 ratio, desalted using C18 solid phase extraction cartridges (Waters®) and analyzed by LC-MS for channel ratio comparison. Samples were then combined using the adjusted volumes determined in the channel ratio analysis and dried down in a speed vacuum. The combined sample was then resuspended in 1% formic acid, and acidified (pH 2-3) before being subjected to desalting with C18 SPE (Sep-Pak®-, Waters®). […] The 96 resulting fractions were then pooled in a non-contiguous manner into 24 fractions and these fractions were used for subsequent mass spectrometry analysis. Data were collected using an Orbitrap FusionTM LumosTM mass spectrometer (Thermo Fisher Scientific, San Jose, CA, USA) coupled with a […] pump (Thermo Fisher Scientific). Peptides were separated on an EasySprayTM ES803.rev2 75 μm inner diameter microcapillary column (ThermoFisher Scientific). Peptides were separated using a 190 min gradient of 6-27% acetonitrile in 1.0% formic acid with a flow rate of 300 nL/min. Each analysis used an MS3-based TMT method as described in McAlister et al., Anal. Chem. 86(14):7150-7158 (2014). The data were acquired using a mass range of m/z 340-1350, resolution 120,000, automatic gain control (AGC) target 1×10^6, maximum injection time 100 ms, dynamic exclusion of 120 seconds for the peptide measurements in the Orbitrap FusionTM LumosTM mass spectrometer. Data dependent MS2 spectra were acquired in the ion trap with a normalized collision energy (NCE) set at 55%, AGC target set to 1.5×10^5 and a maximum injection time of 150 ms. MS3 scans were acquired in the Orbitrap FusionTM LumosTM mass spectrometer with a higher energy collision dissociation (HCD) set to 55%, AGC target set to 1.5×10^5, maximum injection time of 150 ms, resolution at 50,000 and with a maximum synchronous precursor selection (SPS) precursors set to 10. Proteome Discoverer 2.2 (Thermo Fisher Scientific) was used for .RAW file processing and controlling peptide and protein level false discovery rates, assembling proteins from peptides, and protein quantification from peptides. MS/MS spectra were searched against a Swissprot human database (December 2016) with both the forward and reverse sequences. […] TMT reporter ion intensities were measured using a 0.003 Da window around the theoretical m/z for each reporter ion in the MS3 scan. […] Reporter ion intensities were normalized and scaled using in-house scripts in the R framework. Statistical analysis was carried out using the limma package within the R framework as described in Ritchie et al., Nucleic Acids Res. 43(7):e47 (2015).

HDAC4 = HDAC4 (Homo sapiens, UniProt P56524); experiment: as above; type: cell-based; parameters: endogenous in cells; host or cells: Kelly cells; settings: 1 μM, 5-hour treatment, vs DMSO, FIG. 3
Chain of HDAC4 (P56524 whole entry): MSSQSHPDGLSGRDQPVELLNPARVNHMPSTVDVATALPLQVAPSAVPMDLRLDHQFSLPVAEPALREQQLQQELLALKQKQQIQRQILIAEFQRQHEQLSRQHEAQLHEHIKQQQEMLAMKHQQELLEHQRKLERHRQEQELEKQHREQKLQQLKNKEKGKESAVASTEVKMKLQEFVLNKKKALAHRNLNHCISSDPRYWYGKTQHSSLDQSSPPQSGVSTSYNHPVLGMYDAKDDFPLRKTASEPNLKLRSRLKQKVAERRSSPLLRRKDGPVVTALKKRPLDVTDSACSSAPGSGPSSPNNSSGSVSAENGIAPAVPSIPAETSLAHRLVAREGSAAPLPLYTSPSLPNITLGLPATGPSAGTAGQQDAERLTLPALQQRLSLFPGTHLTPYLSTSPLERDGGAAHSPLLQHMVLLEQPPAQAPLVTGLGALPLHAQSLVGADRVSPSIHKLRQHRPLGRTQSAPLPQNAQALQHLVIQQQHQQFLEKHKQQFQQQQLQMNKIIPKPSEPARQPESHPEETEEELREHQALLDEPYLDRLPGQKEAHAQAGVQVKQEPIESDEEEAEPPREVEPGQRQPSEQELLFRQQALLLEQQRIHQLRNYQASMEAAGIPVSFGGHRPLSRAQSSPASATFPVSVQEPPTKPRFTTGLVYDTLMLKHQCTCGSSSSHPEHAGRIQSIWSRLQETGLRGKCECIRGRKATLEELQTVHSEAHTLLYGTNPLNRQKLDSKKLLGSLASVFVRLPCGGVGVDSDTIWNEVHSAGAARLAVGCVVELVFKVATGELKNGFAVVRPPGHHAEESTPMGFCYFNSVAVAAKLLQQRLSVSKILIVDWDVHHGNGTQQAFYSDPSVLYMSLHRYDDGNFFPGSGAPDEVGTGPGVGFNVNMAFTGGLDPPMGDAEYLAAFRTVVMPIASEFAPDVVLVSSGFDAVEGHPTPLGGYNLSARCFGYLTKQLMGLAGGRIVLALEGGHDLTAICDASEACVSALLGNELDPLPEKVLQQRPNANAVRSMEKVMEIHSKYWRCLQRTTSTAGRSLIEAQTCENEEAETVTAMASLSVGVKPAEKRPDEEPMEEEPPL
Experimental: as §2

Chain of HDAC6 (Q9UBN7 whole entry): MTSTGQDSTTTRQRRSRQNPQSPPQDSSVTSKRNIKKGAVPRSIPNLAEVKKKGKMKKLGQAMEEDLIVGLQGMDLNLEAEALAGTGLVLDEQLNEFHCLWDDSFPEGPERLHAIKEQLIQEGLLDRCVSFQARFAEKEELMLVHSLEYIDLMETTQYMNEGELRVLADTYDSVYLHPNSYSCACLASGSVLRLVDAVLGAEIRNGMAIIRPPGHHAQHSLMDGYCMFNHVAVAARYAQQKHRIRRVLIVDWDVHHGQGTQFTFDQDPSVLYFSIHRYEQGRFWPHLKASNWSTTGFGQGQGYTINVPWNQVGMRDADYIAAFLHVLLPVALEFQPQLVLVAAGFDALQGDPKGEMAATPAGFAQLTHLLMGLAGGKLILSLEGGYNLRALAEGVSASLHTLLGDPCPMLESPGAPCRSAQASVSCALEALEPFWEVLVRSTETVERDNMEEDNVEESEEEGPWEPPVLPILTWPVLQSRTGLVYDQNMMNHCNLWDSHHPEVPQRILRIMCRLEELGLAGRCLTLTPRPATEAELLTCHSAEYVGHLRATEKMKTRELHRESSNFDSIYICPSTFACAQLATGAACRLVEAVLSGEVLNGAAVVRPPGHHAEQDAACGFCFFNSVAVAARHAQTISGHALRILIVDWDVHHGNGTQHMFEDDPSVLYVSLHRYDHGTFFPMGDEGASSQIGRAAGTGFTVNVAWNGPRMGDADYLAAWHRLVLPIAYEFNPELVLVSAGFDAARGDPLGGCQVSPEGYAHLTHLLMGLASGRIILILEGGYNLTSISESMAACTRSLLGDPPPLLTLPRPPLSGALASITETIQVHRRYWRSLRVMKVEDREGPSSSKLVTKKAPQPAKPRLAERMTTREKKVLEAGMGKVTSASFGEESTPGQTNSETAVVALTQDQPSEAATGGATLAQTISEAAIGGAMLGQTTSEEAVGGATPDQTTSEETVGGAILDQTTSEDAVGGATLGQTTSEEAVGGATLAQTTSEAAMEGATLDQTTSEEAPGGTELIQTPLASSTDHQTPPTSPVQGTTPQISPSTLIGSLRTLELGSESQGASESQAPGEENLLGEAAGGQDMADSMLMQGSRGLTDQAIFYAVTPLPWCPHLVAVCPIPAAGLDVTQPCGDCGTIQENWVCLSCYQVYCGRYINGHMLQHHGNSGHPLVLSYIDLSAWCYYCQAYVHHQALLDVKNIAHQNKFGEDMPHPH
Chain of HDAC8 (Q9BY41 whole entry): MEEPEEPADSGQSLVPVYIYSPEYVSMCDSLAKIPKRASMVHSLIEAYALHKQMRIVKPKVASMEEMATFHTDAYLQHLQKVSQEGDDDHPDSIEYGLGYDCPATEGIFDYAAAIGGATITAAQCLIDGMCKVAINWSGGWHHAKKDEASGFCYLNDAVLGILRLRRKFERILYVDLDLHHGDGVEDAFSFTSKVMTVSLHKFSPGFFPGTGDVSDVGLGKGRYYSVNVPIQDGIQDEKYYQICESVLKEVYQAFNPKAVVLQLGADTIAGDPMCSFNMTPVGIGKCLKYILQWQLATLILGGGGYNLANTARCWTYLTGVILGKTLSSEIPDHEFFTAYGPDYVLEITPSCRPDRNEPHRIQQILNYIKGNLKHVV

protein expression level of HDAC5 (HDAC5)	protein expression level of HDAC4 (HDAC4)	SMILES	inhibition of HDAC6 (HDAC6)	inhibition of HDAC8 (HDAC8)	class IIa HDAC levels (relative protein abundance) (class IIa HDACs)
–	–	O=C1CCC(N2C(=O)c3cccc(NCCCCCCN4CCC(CNC(=O)c5cccc(-c6noc(C(F)(F)F)n6)c5)(c5nc(-c6ccccc6)cs5)CC4)c3C2=O)C(=O)N1 (centres unmarked) [Compound 1]	did not inhibit	did not inhibit	–
reduction in protein expression level	reduction in protein expression level	CCN(CCNc1cccc2c1C(=O)N(C1CCC(=O)NC1=O)C2=O)C[C@@H](C)NC(=O)c1ccc(-c2noc(C(F)(F)F)n2)cc1 (stereo partly drawn) [Compound 16, N-((2R)-1-((2-((2-(2,6-dioxopiperidin-3-yl)-1,3-dioxoisoindolin-4-yl)amino)ethyl)(ethyl)amino)propan-2-yl)-4-(5-(trifluoromethyl)-1,2,4-oxadiazol-3-yl)benzamide]	–	–	significant reduction
